Experimental data reported in patent publication US20260092919A1, “REAGENT FOR MEASURING TYROSINE KINASE ACTIVITY, AND USE THEREOF” (HILO CO. LTD., priority 2022, published 2026).

Experiments:
[1] = test system: EGFR tyrosine kinase activity; assay: FRET efficiency (FRET/CFP) time-lapse imaging in Cos-1 cells expressing biosensor; type: cell-based, African green monkey
Description: (§1) Fluorescence images of cells were acquired using an IX81 research-grade inverted microscope (Olympus) equipped with a stage incubator (LCI), a motorized XY-stage (Chuo Precision Industrial), and a CoolSNAP Myo cooled charge-coupled device (CCD) camera (Nippon Roper) under the control of MetaMorph software (Molecular Devices Japan). […] White light from a SOLA light engine (Lumencore) was attenuated by a 20% neutral density filter and used as excitation light after interference by each filter. Images were captured using a 60× oil immersion objective lens (numerical aperture 1.40) (4×4 binning, fluorescence images: exposure time 200 msec, differential interference contrast images: exposure time 20 msec).
(§2) After 24 hours, the medium was changed to phenol red-free MEM-F12 medium, and the cells were serum-starved for 4 hours. Time-lapse fluorescence imaging was then initiated, with FRET, CFP, and DIC images acquired every 30 seconds. Cells were stimulated by adding EGF to a final concentration of 50 ng/ml at 10 minutes after starting imaging, and imaging was continued for another 50 minutes. Following background subtraction, FRET efficiency was calculated as the ratio of cellular fluorescence intensity (FRET/CFP) from each channel at each time point.

[2] = target: T1, EGFR tyrosine kinase activity in A549 cells (Homo sapiens, UniProt P00533); assay: FRET efficiency in A549 cells expressing Pickles_2.34NES; type: cell-based
T1 construct: pFX-Pickles_2.34NES was introduced into A549 cells and H1299 cells; endogenous in cells; host or cells: A549
Description: as §1, §2

[3] = test system: EGFR tyrosine kinase activity in H1299 cells; assay: FRET efficiency in H1299 cells expressing Pickles_2.34NES
Description: as §1, §2

[4] = target: EGFR tyrosine kinase activity in HCC827 cells (Homo sapiens, UniProt P00533, DEL746-750); assay: FRET efficiency in HCC827 cells expressing Pickles biosensor
Description: as §1, §2

| change in FRET efficiency upon EGF stimulation [2] | response of FRET efficiency to EGF stimulation compared to Pickles_2.34 [4] | Substance | change in FRET efficiency with HGF stimulation ([1]; Cos-1 cells expressing Pickles, HGF instead of EGF, same amount) | increase in FRET efficiency upon EGF stimulation ([1]; Cos-1 cells expressing the biosensor, EGF 50 ng/ml) | increase in FRET efficiency upon EGF stimulation [3] |
| --- | --- | --- | --- | --- | --- |
| – | – | Pickles_2.34: SEQ ID NO: 6: m1Venus, CrkL residues 1-222 with D94A, cp173-ECFP FRET biosensor | did not change | 77.7% | – |
| increased significantly | higher sensitivity | Pickles_2.34NES: SEQ ID NO: 7: Pickles_2.34 with the NES from protein kinase A inhibitor added to its N-terminus | – | – | slight |
